In one test the target is T1, OR7C1 (Homo sapiens, UniProt O76099).
T1 construct: transfected with a plasmid containing the CRE-luciferase and a plasmid containing the olfactory receptor; expressed in transfected cells; host or cells: HEK293T-RTP1A1/RTP2 (HEK293T stably expressing the chaperones RTP1A1 and RTP2)
T1 sequence (O76099 1-320): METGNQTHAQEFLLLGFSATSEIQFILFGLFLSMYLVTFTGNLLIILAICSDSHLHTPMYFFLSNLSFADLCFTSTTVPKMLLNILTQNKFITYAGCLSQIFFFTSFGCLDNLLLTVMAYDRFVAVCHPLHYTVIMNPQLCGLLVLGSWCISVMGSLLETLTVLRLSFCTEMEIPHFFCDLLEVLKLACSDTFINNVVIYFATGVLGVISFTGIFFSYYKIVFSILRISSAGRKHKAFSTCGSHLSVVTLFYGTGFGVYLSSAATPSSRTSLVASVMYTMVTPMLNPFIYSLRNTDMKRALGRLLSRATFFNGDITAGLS
Briefly: Luciferase-based CRE gene reporter assay, dose-response on OR7C1. Format: cell-based. Conditions: negative logarithm of the EC50 in Moles; semi-logarithmic dilutions from 1 mM to 316 nM on OR7C1. Here is the method:
HEK293T-RTP1A1/RTP2 cells were maintained in minimal essential medium (EMEM, Lonza) containing 10% fetal bovine serum (M10). These cells were generated by transfecting HEK293T (Thermofisher Scientific, cat ref: R70007) with an expression vector containing the sequences of the chaperone proteins RTP1A1 and RTP2 and a resistance gene to puromycin, using Lipofectamine 2000. The recombinant cell population, used in these experiments, was selected by adding 10 μg/ml of puromycin into the culture medium and subsequently subcloned (WO 2014/191047 A1).
Potential OR7C1 agonists were diluted at a concentration of 1 mole/liter (M) into an organic solvent such as Dimethyl Sulfoxide (DMSO) or Ethanol to generate stock solutions. […]
For concentration-response analysis, serial dilutions of the tested molecules were prepared from stock solutions in EMEM plated into 96-well plates.
For the dose-response analysis, a Luciferase-based gene reporter assay (Promega, Leiden, the Netherlands) was used. Briefly, cells were platted on poly-D-lysine-coated 96-well plates and transfected with a plasmid containing the CRE-luciferase and a plasmid containing the olfactory receptor. Sixteen hours after transfection, the culture medium was replaced by serum-free EMEM containing the tested compounds at a determined concentration. After four hours of incubation at 37° C., cells were lysed and processed for luminescence measurement. Luminescence emission was recorded. Results were expressed as luciferase activity ([…] (RLU)) or as percentage of the response induced by 10 μM of the adenylate cyclase activator Forskolin. An empty plasmid is used as negative control.
Dose-response analyses using the luciferase-based reporter assay were performed using semi-logarithmic serial dilutions of the compounds, from 1 mM to 316 nM, on OR7C1. 46 compounds were tested in concentration-response analyses. In each experiment, an empty vector (pEFIBRHO) was used as negative control. Values are given as the negative logarithm of the EC50 in Moles.
On the technique in general: In a reporter assay the amount or activity of a reporter protein is the signal.

A further test deals with human skin explants. Briefly: Melanogenesis in human skin living explants (Masson's Fontana staining, image analysis). Format: cell-based. To be noted: for melanogenesis: compared with chronic UVA; for increase of melanin content in the basal layer of the epidermis (image analysis, stained surface): D6, explants phototype II, p<0.01. Here is the method:
Human skin explants of an average diameter of 12 mm (±1 mm) were prepared on an abdoplasty coming from a person (reference: P2237AB47—phototype II) or person (reference P2196-AB61, phototype III). The explants were kept in survival in BEM culture medium (BIO-EC's Explants Medium) at 37° C. in a humid, 5%-CO2 atmosphere.
The Ambermax was diluted in 0.1% ethanol at the following concentrations: 0.3 μM, 1 μM, 3 μM, 10 μM, 15 μM, 30 μM and 100 μM. The diluted solutions were stored at 4° C. during the study.
The explants were treated for 10 days with Ambermax (see products application below) or with no treatment.
On day 0 (DO), day 3 (D3), day 5 (D5), day 7 (D7) and day 10 (D10), the tested products (compounds for use in the invention) were 1) applied topically using a small spatula based on 2 μl per explant (2 mg per cm^2) at the indicated concentrations, 2) applied intradermatically by injections into the dermis using a syringe with 20 μL of product for each explant or 3) applied systemically by dilutions of the compound of invention in the culture media at the indicated concentration. […] The culture medium was half renewed (1 ml/well) on day 3, day 5, day 7 and day 10.
On day 0 (D0), D2, D3, D6, and D8, the tested products (compounds for use in the invention) were applied topically using a small spatula on the basis of 2 μl per explant (2 mg per cm^2). […] The culture medium was half renewed (1 ml/well) on D2, D3, D6 and D8.
After fixation for 24 hours in buffered formalin solution, the samples were dehydrated and impregnated in paraffin using a Leica PEARL dehydration automat. The samples were then paraffin-embedded using a Leica EG 1160 embedding station. 5-μm-thick sections of paraffin-embedded formol fixed sections were realized using a Leica RM 2125 Minot-type microtome, and the sections were then mounted on Superfrost® Plus glass slides. Microscopical observations were realized using a Leica DMLB, a BX43 or BX63 Olympus microscope. Pictures were digitized with an Olympus DP72 or DP74 camera and the Cell^D or cellSens data storing software.
Melanin was visualized after silver impregnation according to Masson's Fontana staining method on formalin-fixed paraffin-embedded (FFPE) skin sections. The staining was assessed by microscopical observation and image analysis of specific batches. Concerned batches: T0, (TUV, P1→P10) on D5 or D6 and D10.
The images analyses were performed on all the images of each batch, according to the following method using Cell^D or cellSens software:
For each batch of explants, the percentage of the region of interest covered by the staining (stained surface percentage) is determined by image analysis according to the previously described process.
Stained surfaces comparisons: the stained surface percentage (Surf %) for each treatment is compared to the untreated condition=>P vs T. The same comparisons are made for the induced batches with or without treatment=>T vs TUV.
The effects ex vivo was shown by treating human biopsies for 10 days (human living explants: 12 mm+/−1, donor, skin type III) with a systemic application, intradermic injections or a topical application of compounds according to embodiments of the invention (Ambermax). Concentrations of 1, 5 and 10 μM of this compound were used for systemic application and intradermic injections on the human explants. For topical application, biopsies were treated with 10, 30, and 100 μM of Ambermax. As control, non-treated explants or/and explants exposed to chronic UVA-irradiations were used as described in the experimental procedures.

In the case of Ambermax [Compound 16], the “-LogEC50 (average n > 3)” value on OR7C1 is given as over 8. Besides, the “enhancement of melanogenesis (microscopical observation and semi-quantification of melanin staining)” value with human skin explants (FFPE skin sections, without UVs exposure) is “very effective to enhance melanogenesis without UVs exposure”. In addition, in the test on human skin explants (intradermal injection for 10 days), the “most effective concentration (melanogenesis)” value stood at 1 µM. For the same substance, the melanogenesis entry with human skin explants (intradermal injection, 1 μM and 10 μM, after 5 days) was “increase of melanogenesis slightly weaker than that achieved with chronic UVA”; in the test with human skin explants (topical treatment, 10 μM, 30 μM and 100 μM, 10 days), “moderate melanogenesis induction, slightly lower than that obtained with of chronic UVA”; in the test on human skin explants (topical treatment, 10 μM, 5 days) it was “increase in melanogenesis comparable to that obtained with chronic UVA irradiation”. In addition, the “melanin content present in the basal layer in skin explants” value with human skin explants (second batch of explants, phototype II, topical) is “induced an increase of the melanin content present in the basal layer”. Besides, the “most efficient concentration to stimulate melanin synthesis” value in the test with human skin explants (systemic treatment, day 10) stood at 1 µM. For the same substance, the “increase of melanin content in the basal layer of the epidermis (image analysis, stained surface)” value is reported as 152% with human skin explants (topical 10 μM) and 160% in the test on human skin explants (topical 15 μM).
